Data as given in patent US20010000731A1, “Method for the prevention and treatment of chronic venous insufficiency” (priority 1999, published 2001).

Test system: swelling of the recto-anus induced by croton oil
Assay: Croton oil-induced hemorrhoid model in rats (recto-anus coefficient, RAC)
Type: in vivo, rat
Conditions: male SD rats; pure alkaloid oral 1 mg/kg; RAC determined 24 hours after induction; FIG. 3
Protocol: Male SD rats (6 weeks old, approximately 140 g) were purchased from Harlan Sprague Dawley and allowed to acclimate for 1 week. The rats were maintained in a pathogen-free facility in accordance with the National Research Council of Laboratory Animal care and use guidelines. Each experiment was preformed with age-matched rats 7- 8 weeks old. The croton oil-induced hemorrhoid model in rats was performed according to the method published by Nishiki (Nishiki et al. (1988) Folia Pharmacology Japan 92:215- 225; Nishiki et al. (1988) Folia Pharmacol. Japan 92:227-240). Briefly, a cotton swab with a diameter of 4 mm soaked with 0.16 mL of inducer (deionized water: pyridine : ethyl ether: 6% croton oil/ethyl ether (1:4:5:10) was applied to the rat's anus for 12 seconds. The final concentration of croton oil was 3%. The edema developed linearly until 7-8 hours after application and the severity of the edema was sustained for more than 24 hours. Twenty-four hours later, recto-anus tissue (approx. 10 mm long) was isolated after the rats were euthanized. The weights of rat body and recto-anus were measured. The recto-anus coefficient (RAC) was calculated using the formula: weight of recto-anus (mg)/body weight (g).
The average RAC of croton oil-treated rats was 2.10, which was 38.2% higher than that the rats treated with vehicle only (RAC=1.52). Vehicle alone did cause significant swelling of the recto-anus as compared with the rats without any treatment (RAC=0.98). Twenty-four hours after hemorrhoid induction with croton oil followed by treatment orally with prickly ash extract at either 6 mg/kg or 30 mg/kg and by treatment topically with prickly ash extract at 6 mg/mL in 1:1 aquaphor, the RAC of rats was determined.
This experiment was performed as described in Example 5. […] Twenty-four hours after hemorrhoid induction with croton oil followed by treatment orally with the pure alkaloids isolated from prickly ash extract at 1 mg/kg, the RAC of rats was determined. […]

| Compound | inhibition of the swelling of the recto-anus induced by croton oil (RAC) |
| --- | --- |
| Chelerythrine | partially reduced |
| COc1ccc2c(c1O)-c1c(O)c(OC)cc3c1[C@H](C2)[N+](C)(C)CC3 [Magnoflorine] | completely inhibited |
| COc1cc2c(cc1O)C[C@H]1c3c(cc(OC)c(O)c3-2)CC[N+]1(C)C [Laurifoline] | partially reduced |
